Drawing on ChEMBL document CHEMBL1212865, “New porphyrin amino acid conjugates: synthesis and photodynamic effect in human epithelial cells” (Bioorg Med Chem, 2010), this text covers Activity, Survival and Stability for three molecules.

Active and inactive are the calls of the source. The rule behind the calls is not given here.

Data set [1] has as its system HeLa. The experiment in a line: Phototoxicity against human HeLa cells assessed as surviving fraction at 0.61 uM under LED array light. It counts as functional.
Data set [2] relates to HaCaT. The experiment in a line: Phototoxicity against human HaCaT cells assessed as surviving fraction at 12 uM under LED array light. It counts as functional.
The subject of data set [3] is HeLa. As to the kind of experiment: Phototoxicity against human HeLa cells assessed as surviving fraction at 0.22 uM under LED array light. It counts as functional.
Data set [4] deals with HaCaT. As to the kind of experiment: Phototoxicity against human HaCaT cells assessed as surviving fraction at 0.25 uM irradiated with 9.15 mW/cm'2 light for 5 mins by MTT assay. The format is functional. A general note: Formazan colour is commonly taken as a measure of viable cells.
The test system of data set [5] is HaCaT. As to the kind of experiment: Phototoxicity against human HaCaT cells assessed as surviving fraction at 2.4 uM under LED array light. The format is functional.
In data set [6] the test system is HaCaT. The experiment in a line: Phototoxicity against human HaCaT cells assessed as surviving fraction at 0.25 uM irradiated with 9.15 mW/cm'2 light for 20 mins by MTT assay. It counts as functional.
Data set [7] relates to HeLa. The experiment in a line: Phototoxicity against human HeLa cells assessed as surviving fraction at 0.25 uM irradiated with 9.15 mW/cm'2 light for 5 mins by MTT assay. The format is functional.
Data set [8] concerns HaCaT. As to the kind of experiment: Induction of apoptosis in human HaCaT cells assessed as change in cellular morphology after irradiation with 9.15 mW/cm'2 light. The format is functional, cell-based.
Data set [9] deals with HeLa. As to the kind of experiment: Phototoxicity against human HeLa cells assessed as surviving fraction at 0.25 uM irradiated with 9.15 mW/cm'2 light for 10 mins by MTT assay. The format is functional.
Data set [10] has as its system HeLa. As to the kind of experiment: Phototoxicity against human HeLa cells assessed as surviving fraction at 2.4 uM under LED array light. It counts as functional.
For data set [11], the system named is HeLa. The experiment in a line: Phototoxicity against human HeLa cells assessed as surviving fraction at 12 uM under LED array light by MTT assay. It counts as functional.
The subject of data set [12] is HaCaT. As to the kind of experiment: Phototoxicity against human HaCaT cells assessed as surviving fraction at 0.22 uM under LED array light by MTT assay. The format is functional.
For data set [13], the system named is HeLa. The experiment in a line: Phototoxicity against human HeLa cells assessed as survival at 0.25 uM irradiated with 9.15 mW/cm'2 light for 10 mins by MTT assay.
The subject of data set [14] is HeLa. The experiment in a line: Phototoxicity against human HeLa cells assessed as surviving fraction at 1.2 uM under LED array light. It counts as functional.
A short description of data set [15]: Photostability of the compound irradiated with 9.15 mW/cm'2 white light. The format is physicochemical.
Data set [16] deals with HaCaT. The experiment in a line: Phototoxicity against human HaCaT cells assessed as surviving fraction at 0.61 uM under LED array light by MTT assay. The format is functional.
In data set [17] the test system is HaCaT. As to the kind of experiment: Induction of apoptosis in human HaCaT cells assessed as intracellular localization at 0.25 uM with 9.15 mW/cm'2 light for. Conditions: TDE = time-dependent effect. The format is functional, cell-based.
The test system of data set [18] is HaCaT. The experiment in a line: Phototoxicity against human HaCaT cells assessed as surviving fraction at 1.2 uM under LED array light. It counts as functional.
Data set [19] concerns HeLa. As to the kind of experiment: Phototoxicity against human HeLa cells assessed as surviving fraction at 0.25 uM irradiated with 9.15 mW/cm'2 light for 20 mins by MTT assay. The format is functional.
Data set [20] concerns HaCaT. The experiment in a line: Phototoxicity against human HaCaT cells assessed as surviving fraction at 0.25 uM irradiated with 9.15 mW/cm'2 light for 10 mins by MTT assay. The format is functional.
Data set [21] relates to HaCaT. The experiment in a line: Induction of apoptosis in human HaCaT cells assessed as change in cytoplasmic vacuolization after irradiation with 9.15 mW/cm'2 light for 10 mins. It counts as functional, cell-based.
The subject of data set [22] is HeLa. The experiment in a line: Phototoxicity against human HeLa cells assessed as surviving fraction at 0.3 uM irradiated with 9.15 mW/cm'2 light for 15 mins by MTT assay. The format is functional.
The subject of data set [23] is HaCaT. As to the kind of experiment: Induction of apoptosis in human HaCaT cells assessed as change in loss of basophilia after irradiation with 9.15 mW/cm'2 light for 10 mins. The format is functional, cell-based.
For data set [24], the system named is HaCaT. As to the kind of experiment: Induction of apoptosis in human HaCaT cells assessed as intracellular localization at 0.3 uM with 9.15 mW/cm'2 light for. As to conditions: TDE = time-dependent effect. It counts as functional, cell-based.
For data set [25], the system named is HaCaT. The experiment in a line: Phototoxicity against human HaCaT cells assessed as surviving fraction at 0.3 uM irradiated with 9.15 mW/cm'2 light for 10 mins by MTT assay. It counts as functional.
The test system of data set [26] is HeLa. As to the kind of experiment: Phototoxicity against human HeLa cells assessed as surviving fraction at 0.3 uM irradiated with 9.15 mW/cm'2 light for 10 mins by MTT assay. The format is functional.
Data set [27] concerns HeLa. As to the kind of experiment: Induction of apoptosis in human HeLa cells assessed as intracellular localization at 0.25 uM with 9.15 mW/cm'2 light for. The format is functional, cell-based. As to conditions: TDE = time-dependent effect.
For data set [28], the system named is HaCaT. The experiment in a line: Induction of apoptosis in human HaCaT cells assessed as change in loss of adheshin after irradiation with 9.15 mW/cm'2 light for 10 mins. The format is functional, cell-based.
The test system of data set [29] is HeLa. As to the kind of experiment: Phototoxicity against human HeLa cells assessed as survival at 0.3 uM irradiated with 9.15 mW/cm'2 light for 10 mins by MTT assay.
For data set [30], the system named is HaCaT. The experiment in a line: Phototoxicity against human HaCaT cells assessed as surviving fraction at 0.3 uM irradiated with 9.15 mW/cm'2 light for 15 mins by MTT assay. It counts as functional.
The test system of data set [31] is HeLa. The experiment in a line: Phototoxicity against human HeLa cells assessed as surviving fraction at 0.3 uM irradiated with 9.15 mW/cm'2 light for 5 mins by MTT assay. It counts as functional.
In data set [32] the test system is HaCaT. The experiment in a line: Phototoxicity against human HaCaT cells assessed as surviving fraction at 0.3 uM irradiated with 9.15 mW/cm'2 light for 5 mins by MTT assay. It counts as functional.
Data set [33] relates to HaCaT. The experiment in a line: Induction of apoptosis in human HaCaT cells assessed as intracellular localization at 1.2 uM with 9.15 mW/cm'2 light for. The format is functional, cell-based. As to conditions: TDE = time-dependent effect.
For data set [34], the system named is HeLa. As to the kind of experiment: Phototoxicity against human HeLa cells assessed as surviving fraction at 1.2 uM irradiated with 9.15 mW/cm'2 light for 20 mins by MTT assay. It counts as functional.
Data set [35] has as its system HeLa. As to the kind of experiment: Phototoxicity against human HeLa cells assessed as surviving fraction at 1.2 uM irradiated with 9.15 mW/cm'2 light for 5 mins by MTT assay. The format is functional.
Data set [36] concerns HaCaT. As to the kind of experiment: Phototoxicity against human HaCaT cells assessed as surviving fraction at 1.2 uM irradiated with 9.15 mW/cm'2 light for 10 mins by MTT assay. It counts as functional.
Data set [37] can be described thus: Induction of singlet oxygen production at 1 uM after irradiation at 10 mW/cm'2 in presence of 1,3-diphenylisobenzofuran. The format is physicochemical.
In data set [38] the test system is HeLa. As to the kind of experiment: Phototoxicity against human HeLa cells assessed as surviving fraction at 1.2 uM irradiated with 9.15 mW/cm'2 light for 10 mins by MTT assay. The format is functional.
Data set [39] deals with HaCaT. As to the kind of experiment: Phototoxicity against human HaCaT cells assessed as surviving fraction at 1.2 uM irradiated with 9.15 mW/cm'2 light for 20 mins by MTT assay. It counts as functional.
The subject of data set [40] is HeLa. The experiment in a line: Phototoxicity against human HeLa cells assessed as survival at 1.2 uM irradiated with 9.15 mW/cm'2 light for 10 mins by MTT assay.

Regarding `COC(=O)CNC(=O)c1ccc(-c2c3nc(c(-c4cccc(OC)c4)c4ccc([nH]4)c(-c4cccc(OC)c4)c4nc(c(-c5cccc(OC)c5)c5ccc2[nH]5)C=C4)C=C3)cc1`, the Activity in [1] is reported as 110.38%; in [2], 24.3%; in [3] it was 107.31%; in [4] it was 82.69%; in data set [5], 109.91%; in data set [6], 22.11%. Moreover, the Activity in [7] was 3.74%; in data set [9], 1.13%; in [10], 104.89%; in [11], 60.42%; in [12] it was 94.98%; in [14], 106.97%. Moreover, the Activity in data set [16] was 97.96%; in [17] it was “tde”; in [18], 102.19%; in data set [19], 1.32%; in data set [20], 50.96%. Also, the result in data set [8] was Active. For the same molecule, the Survival in data set [13] was 50.96%. Also, the Stability entry in data set [15] is recorded as “Stable”.

In the case of `COC(=O)C(CC[S+](C)[O-])NC(=O)c1ccc(-c2c3nc(c(-c4cccc(OC)c4)c4ccc([nH]4)c(-c4cccc(OC)c4)c4nc(c(-c5cccc(OC)c5)c5ccc2[nH]5)C=C4)C=C3)cc1` (configuration not stated), the result in [21], in [23] and in data set [28] was Active. The Activity in data set [22] is 10.93%; in data set [24], “tde”; in data set [1], 92.61%; in data set [2], 16.9%; in data set [3], 93.26%; in data set [5], 101.3%. The Activity is recorded as 93.5% in [10]; 53.02% in data set [25]; 16.93% in [11]; 99.2% in [12]; 14.23% in data set [26]; 95.69% in data set [14]. Moreover, the Activity entry in [27] was “tde”; in [16], 101.5%; in data set [18], 103.4%; in data set [30], 28.2%; in data set [31] it was 56.87%; in data set [32] it was 76.87%. In addition, in data set [29], the Survival is on record as 53.02%.

As for `COC(=O)C(CO)NC(=O)c1ccc(-c2c3nc(c(-c4cccc(OC)c4)c4ccc([nH]4)c(-c4cccc(OC)c4)c4nc(c(-c5cccc(OC)c5)c5ccc2[nH]5)C=C4)C=C3)cc1` (configuration not stated), the Activity was 100.28% in data set [1]; 96.98% in [2]; “tde” in data set [33]; 102.58% in [3]; 0% in data set [34]; 97.54% in [5]. In addition, the Activity in data set [35] was 8%; in data set [10], 91.48%; in data set [11] it was 67.33%; in [12], 101.49%; in [36], 42.75%; in data set [14], 102.78%. Moreover, the Activity result in data set [37] was “Active”; in [27], “tde”; in data set [16] it was 104.72%; in data set [38] it was 0%; in [18], 102.65%; in data set [39] it was 22.54%. Further, the result in data set [8] was Active. The Survival in data set [40] came to 42.75%.
